pIC50: −log10 of the molar value.
System: 349418-098-R-PDC complex spheroid viability
Assay: Anticancer human tumor 349418-098-R-PDC patient-derived lung adenocarcinoma cell line growth inhibition [RAS]
Conditions: for pIC50: curve of first compound; for viability, T/C: stronger effect = lower value
Procedure, shortened: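 Multi-cell-type spheroids: tumor cells plus HUVEC endothelial cells and mesenchymal stem cells. RAS-pathway inhibitors were combined with targeted agents, each dosed in half-log steps down from clinical Cmax, or from 10 microM when Cmax was unknown.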
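Also: spheroids exposed to compound for seven days before viability readout.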

For `C=CC(=O)N1CCN(c2nc(OCC3CCCN3C)nc3c(F)c(-c4nc(N)cc(C)c4C(F)(F)F)c(Cl)cc23)C(C)C1` (configuration not stated) + C#Cc1c(F)ccc2cc(O)cc(-c3ncc4c(N5CC6CCC(C5)N6)nc(OCC56CCCN5CC(F)C6)nc4c3F)c12, the pIC50 (second compound 0.0316 µM) was < 6.00, the pIC50 (second compound 0.1 µM) was < 6.00 and the pIC50 (second compound 0.316 µM) was < 6.00. The pIC50 (second compound 1 µM) was < 6.00, the pIC50 (second compound 3.16 µM) was < 6.00 and the pIC50 (second compound 10 µM) was 6.57. For the same molecule, the viability, T/C (second compound 0.0316 µM, first compound 0.00316 µM) was 82.8%, the viability, T/C (second compound 0.0316 µM, first compound 0.01 µM) was 105% and the viability, T/C (second compound 0.0316 µM, first compound 0.0316 µM) was 112%. The viability, T/C (second compound 0.0316 µM, first compound 0.1 µM) was 75.1%, the viability, T/C (second compound 0.0316 µM, first compound 0.316 µM) was 111% and the viability, T/C (second compound 0.0316 µM, first compound 1 µM) was 69.8%. For the same molecule, the viability, T/C (second compound 0.1 µM, first compound 0.00316 µM) was 74.3%, the viability, T/C (second compound 0.1 µM, first compound 0.01 µM) was 124% and the viability, T/C (second compound 0.1 µM, first compound 0.0316 µM) was 104%. For the same molecule, the viability, T/C (second compound 0.1 µM, first compound 0.1 µM) was 87.2%, the viability, T/C (second compound 0.1 µM, first compound 0.316 µM) was 98.3% and the viability, T/C (second compound 0.1 µM, first compound 1 µM) was 83.9%. For the same molecule, the viability, T/C (second compound 0.316 µM, first compound 0.00316 µM) was 65.6%, the viability, T/C (second compound 0.316 µM, first compound 0.01 µM) was 125% and the viability, T/C (second compound 0.316 µM, first compound 0.0316 µM) was 109%. It also gave a viability, T/C (second compound 0.316 µM, first compound 0.1 µM) of 79.7%, a viability, T/C (second compound 0.316 µM, first compound 0.316 µM) of 89.3% and a viability, T/C (second compound 0.316 µM, first compound 1 µM) of 87.6%. It also gave a viability, T/C (second compound 1 µM, first compound 0.00316 µM) of 81%, a viability, T/C (second compound 1 µM, first compound 0.01 µM) of 114% and a viability, T/C (second compound 1 µM, first compound 0.0316 µM) of 82.9%. It also gave a viability, T/C (second compound 1 µM, first compound 0.1 µM) of 91.2%, a viability, T/C (second compound 1 µM, first compound 0.316 µM) of 83.2% and a viability, T/C (second compound 1 µM, first compound 1 µM) of 77.9%. For the same molecule, the viability, T/C (second compound 3.16 µM, first compound 0.00316 µM) was 77.4%, the viability, T/C (second compound 3.16 µM, first compound 0.01 µM) was 105% and the viability, T/C (second compound 3.16 µM, first compound 0.0316 µM) was 112%. For the same molecule, the viability, T/C (second compound 3.16 µM, first compound 0.1 µM) was 73.3%, the viability, T/C (second compound 3.16 µM, first compound 0.316 µM) was 116% and the viability, T/C (second compound 3.16 µM, first compound 1 µM) was 75.2%. The viability, T/C (second compound 10 µM, first compound 0.00316 µM) was 91%, the viability, T/C (second compound 10 µM, first compound 0.01 µM) was 75% and the viability, T/C (second compound 10 µM, first compound 0.0316 µM) was 85.3%. It also gave a viability, T/C (second compound 10 µM, first compound 0.1 µM) of 66.8%, a viability, T/C (second compound 10 µM, first compound 0.316 µM) of 47.7% and a viability, T/C (second compound 10 µM, first compound 1 µM) of 7.82%.

From PubChem BioAssay AID2060904 (Molecular Pharmacology Branch, DTP, NCI, 2025)
